The target of assay [1] is T1, c-Met kinase domain recombinant protein (Homo sapiens, UniProt P08581).
T1 construct: 50 μL diluted solution of c-Met kinase domain recombinant protein in reaction buffer was added to initiate the reaction
Description: biochemical. The conditions noted are these: read-out: Inhibition rate at 10 μM (%). On the procedure: Enzymatic reaction substrate Poly(Glu,Tyr)4:1 was diluted to 20 μg/mL in potassium ion free PBS (10 mM sodium phosphate buffer, 150 mM NaCl, pH7.2-7.4), microplate was coated with this solution at 125 μL per well, and reacted at 37° C. for 12-16 hours. Liquid in wells was discarded. Plate washing: the plate was washed 3 times for 5 minutes each with 200 μL per well of T-PBS (potassium ion free PBS containing 0.1% Tween-20).
Into each well was added 49 μL diluted ATP solution in reaction buffer (50 mM HEPES pH 7.4, 50 mM MgCl2, 0.5 mM MnCl2, 0.2 mM Na3VO4, 1 mM DTT), and 1 μL per well of compound to be tested was added, then 50 μL diluted solution of c-Met kinase domain recombinant protein in reaction buffer was added to initiate the reaction, each test was setup with two wells of ATP free control. Reaction was performed in a 37° C. shaker (100 rpm) for 1 hour. Liquid in the wells was discarded, and the plate was washed three times with T-PBS.
Antibody PY99 was added at 100 μL per well (the antibody was 1:500 diluted in T-PBS containing 5 mg/mL BSA), incubated in a 37° C. shaker for 0.5 hour. Liquid in the wells was discarded, and the plate was washed three times with T-PBS.
Goat anti mouse secondary antibody labeled with horseradish peroxidase was added at 100 μL per well (the antibody was 1:2000 diluted in T-PBS containing 5 mg/mL BSA), incubated in a 37° C. shaker for 0.5 hour. Liquid in the wells was discarded, and the plate was washed three times with T-PBS.
Reaction was terminated by adding 50 μL per well of 2M H2SO4, the plate was read at 490 nm using a VERSAmax microplate reader with tunable wavelength.
(§1) Inhibition rate of the sample was calculated using the following equation: […]

Assay [2] deals with T1, c-Met kinase domain recombinant protein. The assay is described as follows: biochemical. The conditions noted are these: for inhibition at 10 µM: read-out: Average inhibition rate at 10 μM (%); for inhibition at 1 µM: read-out: Average inhibition rate at 1 μM (%); for inhibition at 0.1 µM: read-out: Average inhibition rate at 0.1 μM (%). On the procedure:
Enzymatic reaction substrate Poly(Glu,Tyr)4:1 was diluted to 20 μg/mL in potassium ion free PBS (10 mM sodium phosphate buffer, 150 mM NaCl, pH7.2-7.4), microplate was coated with this solution at 125 μL per well, and reacted at 37° C. for 12-16 hours. Liquid in wells was discarded, then the plate was washed 3 times for 5 minutes each with 200 μL per well of T-PBS (PBS containing 0.1% Tween-20).
Into each well was added 50 μL diluted ATP solution in reaction buffer (50 mM HEPES pH 7.4, 50 mM MgCl2, 0.5 mM MnCl2, 0.2 mM Na3VO4, 1 mM DTT), the final concentration was 5 μM. Test compound was diluted in DMSO to proper concentration, added at 1 μL per well or corresponding level of DMSO (negative control wells), then 49 μL diluted solution of c-Met kinase domain recombinant protein in reaction buffer was added to initiate the reaction, each test was setup with two wells of ATP free control. Reaction was performed in a 37° C. shaker (100 rpm) for 1 hour. The plate was washed three times with T-PBS. Primary antibody PY99 diluted solution was added at 100 μL per well, incubated in a 37° C. shaker for 0.5 hour.
The plate was washed three times with T-PBS. Goat anti mouse secondary antibody labeled with horseradish peroxidase was added at 100 μL per well, incubated in a 37° C. shaker for 0.5 hour. The plate was washed three times with T-PBS. […] Reaction was terminated by adding 50 μL per well of 2M H2SO4, the plate was read at 490 nm using a SPECTRA MAX 190 microplate reader with tunable wavelength.
as §1
IC50 was calculated by fitting the data for a four parameter fit using inhibition curve.

Where two headings read alike, the source gives them in different places.

T1 sequence (P08581 1078-1345 limits assumed): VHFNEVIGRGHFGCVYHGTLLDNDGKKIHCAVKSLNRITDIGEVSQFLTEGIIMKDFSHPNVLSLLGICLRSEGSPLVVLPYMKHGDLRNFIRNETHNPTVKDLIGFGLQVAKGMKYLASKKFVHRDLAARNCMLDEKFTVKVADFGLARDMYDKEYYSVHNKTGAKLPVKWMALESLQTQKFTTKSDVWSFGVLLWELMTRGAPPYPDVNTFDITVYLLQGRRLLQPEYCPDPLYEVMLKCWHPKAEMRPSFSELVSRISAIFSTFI

As usually defined, the inhibition is the percentage by which the read-out fell short of the control. As for `Cn1cc(-c2cnc3ccn(S(=O)(=O)c4ccccc4[N+](=O)[O-])c3c2)cn1` [Compound 1, 1-(2-nitrobenzenesulfonyl)-6-[(1-methyl)-4-pyrazolyl]-1-H-pyrrolo[3,2-b]pyridine], the inhibition at 10 µM in assay [1] and in assay [2] was 88.1% each time.
As to `Cn1cc(-c2cnc3[nH]nc(S(=O)(=O)c4ccccc4[N+](=O)[O-])c3c2)cn1` [Compound 2, 3-(2-nitrobenzenesulfonyl)-5-[(1-methyl)-4-pyrazolyl]-1-H-pyrazolo[3,4-b]pyridine], the inhibition at 10 µM in assay [1] and in assay [2] was 92.8% throughout. For the same molecule, in assay [2], the inhibition at 1 µM came out at 7%.
With `Cn1cc(-c2cnc3cnn(S(=O)(=O)c4ccccc4[N+](=O)[O-])c3c2)cn1` [Compound 3, 1-(2-nitrobenzenesulfonyl)-6-[(1-methyl)-4-pyrazolyl]-1-H-pyrazolo[4,3-b]pyridine], the inhibition at 10 µM in assay [1] and in assay [2] was 84.6% throughout.
In the case of `Cn1cc(-c2cnc3cnn(S(=O)(=O)c4ccccc4)c3c2)cn1` [Compound 4, 1-benzenesulfonyl-6-[(1-methyl)-4-pyrazolyl]-1-H-pyrazolo[4,3-b]pyridine], the inhibition at 10 µM in assay [1] and in assay [2] was 44.1% in each case.
Turning to `Cn1cc(-c2cnc3cnn(S(=O)(=O)c4cccc(F)c4)c3c2)cn1` [Compound 5, 1-(3-fluorobenzenesulfonyl)-6-[(1-methyl)-4-pyrazolyl]-1-H-pyrazolo[4,3-b]pyridine], in assay [1], the inhibition at 10 µM came to 57.5%. In assay [2], the inhibition at 0.1 µM was 2.1%, the inhibition at 1 µM stood at 33.8% and the inhibition at 10 µM is 57.5%.
Consider `O=S(=O)(c1c[nH]c2ncc(-c3cccc(Cl)c3)cc12)n1ncc2cccnc21` [Example 109, 1-[(3-chlorophenyl)-1-H-pyrrolo[2,3-b]pyridine-3-sulfonyl]-1-H-pyrazolo[3,4-b]pyridine], for which the inhibition at 1 µM in assay [2] is 40%.
Same read-out and setting: to `O=S(=O)(c1c[nH]c2ncc(-c3ccc(N4CCOCC4)cc3)cc12)n1ncc2cccnc21` [Example 110, 1-[(4-morpholinylphenyl)-1-H-pyrrolo[2,3-b]pyridine-3-sulfonyl]-1-H-pyrazolo[3,4-b]pyridine] belongs 13.5%.
For the molecule `Cn1cc(-c2cnc3cnn(S(=O)(=O)c4cccc5ccccc45)c3c2)cn1` [Example 111, 1-(naphthalene-1-sulfonyl)-6-[(1-methyl)-4-pyrazolyl]-1-H-pyrazolo[4,3-b]pyridine], in assay [2], the inhibition at 0.1 µM amounted to 28.6% and the inhibition at 1 µM worked out at 63.3%.
Take `Cn1cc(-c2cnc3cnn(S(=O)(=O)c4ccc5ccccc5c4)c3c2)cn1` [Example 112, 1-(naphthalene-2-sulfonyl)-6-[(1-methyl)-4-pyrazolyl]-1-H-pyrazolo[4,3-b]pyridine]: the inhibition at 1 µM in assay [2] is 48.8%.
For the molecule `Nc1ccc2ncc(S(=O)(=O)n3ncc4ncc(-c5cc(Cl)cc(Cl)c5)cc43)n2c1` [Example 114, 1-[(6-amino-imidazo[1,2-a]pyridine)-3-sulfonyl]-6-(3,5-dichlorophenyl)-1-H-pyrazolo[4,3-b]pyridine], the inhibition at 1 µM in assay [2] came to 30.4%.
Turning to `O=[N+]([O-])c1ccc2ncc(S(=O)(=O)n3ncc4ncc(-c5ccc(C(F)(F)F)cc5)cc43)n2c1` [Example 115, 1-[(6-nitro-imidazo[1,2-a]pyridine)-3-sulfonyl]-6-(4-trifluoromethylphenyl)-1-H-pyrazolo[4,3-b]pyridine], in assay [2], the inhibition at 0.1 µM is 46.6% and the inhibition at 1 µM is 95.7%.
One may read the IC50 as the concentration needed to halve the response being measured. For the molecule `O=[N+]([O-])c1ccc2ncc(S(=O)(=O)n3ncc4ncc(-c5cc(F)c(F)c(F)c5)cc43)n2c1` [Example 116, 1-[(6-nitro-imidazo[1,2-a]pyridine)-3-sulfonyl]-6-(3,4,5-trifluorophenyl)-1-H-pyrazolo[4,3-b]pyridine], in assay [2], the IC50 was 3.6 ± 0.6 nM, the inhibition at 0.1 µM amounted to 70.8% and the inhibition at 1 µM was 84.6%.
On to `Nc1ccc2ncc(S(=O)(=O)n3ncc4ncc(-c5ccccc5)cc43)n2c1` [Example 117, 1-[(6-amino-imidazo[1,2-a]pyridine)-3-sulfonyl]-6-phenyl-1-H-pyrazolo[4,3-b]pyridine], for which, in assay [2], the inhibition at 1 µM came to 15.8%.
As for `Nc1ccc2ncc(S(=O)(=O)n3ncc4ncc(-c5ccc(F)cc5)cc43)n2c1` [Example 118, 1-[(6-amino-imidazo[1,2-a]pyridine)-3-sulfonyl]-6-(4-fluorophenyl)-1-H-pyrazolo[4,3-b]pyridine], in assay [2], the inhibition at 0.1 µM came out at 62.7% and the inhibition at 1 µM was determined as 75.5%.
With `CCCCNc1ccc2ncc(S(=O)(=O)n3ncc4ncc(-c5cnn(C)c5)cc43)n2c1` [Example 119, 1-[(6-n-butylamino-imidazo[1,2-a]pyridine)-3-sulfonyl]-6-[(1-methyl)-4-pyrazolyl]-1-H-pyrazolo[4,3-b]pyridine], in assay [2], the inhibition at 1 µM came to 26.4%.
Consider `CC(=O)Nc1ccc2ncc(S(=O)(=O)n3ncc4ncc(-c5cnn(C)c5)cc43)n2c1` [Example 120, 1-[(6-acetylamino-imidazo[1,2-a]pyridine)-3-sulfonyl]-6-[(1-methyl)-4-pyrazolyl]-1-H-pyrazolo[4,3-b]pyridine], for which the inhibition at 1 µM in assay [2] was determined as 28.7%.
For the molecule `COc1ccc2ncc(S(=O)(=O)n3ncc4ncc(-c5cncc6ccccc56)cc43)n2c1` [Example 122, 1-[(6-methoxy-imidazo[1,2-a]pyridine)-3-sulfonyl]-6-(4-isoquinolinyl)-1-H-pyrazolo[4,3-b]pyridine], in assay [2], the IC50 was 190 ± 32.7 nM, the inhibition at 0.1 µM was found to be 72.9% and the inhibition at 1 µM amounted to 100%.
For `COc1ccc2cc(-c3cnc4cnn(S(=O)(=O)c5cnc6ccc(OC)cn56)c4c3)ccc2c1` [Example 123, 1-[(6-methoxy-imidazo[1,2-a]pyridine)-3-sulfonyl]-6-(6-methoxy-2-naphthyl)-1-H-pyrazolo[4,3-b]pyridine], in that order: 51.5 ± 6 nM, 87% and 99.3%.
Take `COc1ccc2ncc(S(=O)(=O)n3ncc4ncc(-c5cccc(C(F)(F)F)c5)cc43)n2c1` [Example 125, 1-[(6-methoxy-imidazo[1,2-a]pyridine)-3-sulfonyl]-6-(3-trifluoromethylphenyl)-1-H-pyrazolo[4,3-b]pyridine]: in assay [2], the IC50 turned out to be 55.2 ± 5.6 nM, the inhibition at 0.1 µM is 84.5% and the inhibition at 1 µM worked out at 99.3%.
In the same order, the values of `O=S(=O)(c1cnc2ccc(O)cn12)n1ncc2ncc(-c3ccccc3)cc21` [Example 127, 1-[(6-hydroxy-imidazo[1,2-a]pyridine)-3-sulfonyl]-6-phenyl-1H-pyrazolo[4,3-b]pyridine] are 30 ± 3.3 nM, 93.9% and 99%.
For `CCOC(=O)c1cnc2cnn(S(=O)(=O)c3cnc4ccc(Br)cn34)c2c1` [Example 130, 1-[(6-bromo-imidazo[1,2-a]pyridine)-3-sulfonyl]-6-ethoxycarbonyl-1-H-pyrazolo[4,3-b]pyridine], in assay [2], the inhibition at 0.1 µM was determined as 16.1% and the inhibition at 1 µM worked out at 90.8%.
In the same order, the values of `O=C(Nc1cnc2cnn(S(=O)(=O)c3cnc4ccc(Br)cn34)c2c1)c1ccccc1` [Example 131, 1-[(6-bromo-imidazo[1,2-a]pyridine)-3-sulfonyl]-6-benzamido-1-H-pyrazolo[4,3-b]pyridine] are 75.1% and 83.6%.
In the same order, the values of `COc1cccc(C(=O)Nc2cnc3cnn(S(=O)(=O)c4cnc5ccc(OC)cn45)c3c2)c1` [Example 134, 1-[(6-methoxy-imidazo[1,2-a]pyridine)-3-sulfonyl]-6-(3-methoxybenzamido)-1-H-pyrazolo[4,3-b]pyridine] are 66.8% and 56.9%.

Values taken from patent US9988381B2, “Five-member-heterocycle fused pyridine compounds, method of producing the same, and use thereof” (SHANGHAI INSTITUTE OF MATERIA MEDICA, CHINESE ACADEMY OF …, priority 2013, dated 2018).
